Assay [1] deals with LOXL1 regulatory elements (promoter region of the LOXL1 gene). The experiment in a line: LOXL1 promoter luciferase-reporter assay. The note with it: 0.001% DL-Desthiobiotin, 24 h, human fibrosarcoma line HTI080, LOXL1/pGL3 vector, triplicate tests, p<0.05 compared to vehicle control. The class given is cell-based. From the text:
Vector construction, transfection and expression: The promoter region of the LOXL1 gene was isolated and cloned into the pGL3 Luciferase reporter plasmid (Promega) by standard methods known in the art and according to manufacturer's instructions. The LOXL1/pGL3 vector and the control vector pRL-NULL (Promega), containing no regulatory elements, were contransfected into the human fibrosarcoma line HTI080 using LipofectAMINE™ LTX Reagent (Invitrogen) according to manufacturer's directions. Transfected cells were allowed to recover for 24 h. The culture medium was then replaced with fresh medium containing various concentrations of DL-Desthiobiotin, and the transfected cells cultured for an additional 24 h. The cultures were subsequently washed with PBS and exposed to 100 microlit cell lysis buffer/25 cm^2 culture area and gently shaken at room temperature for 30 min. The culture flasks containing the cell lysate were then immediately placed at −80 °C. Determination of reporter activity: The activity of the reporter gene, firefly luciferase, was determined according to the manufacturer's instructions (Dual-Luciferase® Reporter Assay System, Promega). Briefly, the activity of the reporter gene is determined relative to that of a control vector encoding a second luciferase gene, that from Renilla reniformis. […]
(Reporter assays use an easily measured gene product as a stand-in for the process of interest.)

For assay [2], the system named is Fibrillin-1 mRNA. The experiment in a line: Fibrillin-1 gene expression by quantitative RT-PCR in fibroblasts. The class given is cell-based. Particulars: 0.001% DL-Desthiobiotin, 48 h, normal human dermal fibroblasts, QPCR, compared to solvent control, p<0.05. The procedure: Cell Treatment: Normal human dermal fibroblasts were plated at 10^6 cells/100 mm tissue culture plates in 10 mls of standard growth medium and incubated at 37° C. and 10% CO2. Approximately 24 hours later, cells were dosed with test actives and solvent controls diluted in fresh growth medium and incubated for 48 hours at 37° C. Following 48-hour incubation, cell medium was removed, and 1 ml of TRIzol® reagent was added to lyse the cells in each plate. Cells from each plate were scraped, passed several times through a pipette, and collected into 1.5 ml centrifuge tubes. The cell lysates were incubated for 5 minutes at 15 to 30° C. to permit the complete dissociation of nucleoprotein complexes, and then stored at −80° C. for RNA isolation. RNA Isolation and RT PCR: RNA was isolated using standard procedures and was dissolved in RNase-free water and stored at −80° C. The concentration of total RNA was determined by using Agilent 2100 Bioanalyzer. […] Reverse Transcriptase (RT) reactions were conducted following the manufacturer's instructions provided by Applied Biosystems, Calif. After the RT step, the reactions were stored at −20° C. for QPCR analysis. QPCR was conducted in a total volume of 20 μl. Applied Biosystems (AB) Universal PCR master mix was used. […]

The record followed here is US20100267792A1, “Topical Compositions Containing Desthiobiotin and its Derivatives and a Method of Treating Skin” (AVON PRODUCTS, INC., priority 2007, published 2010).

In the case of `CC1NC(=O)NC1CCCCCC(=O)O` (racemic) [DL-Desthiobiotin], the “increase in expression of the reporter gene” value in assay [1] stood at 90%. In assay [2], the “increase in Fibrillin-1 gene expression” value stood at 47.55%.
